Experimental data: US9120849B2 (priority 2000, dated 2015)
Where two headings read alike, the source gives them in different places.

Tested on: HIV
Settings: for HIV p24 protein in culture supernatants: CEM cells
Protocol: This example describes one method of inactivation of the purified virus according to the invention by crosslinking of surface proteins. […] Titrations of the fixative were preformed above and below the concentration recommended by the CDC for inactivation of virus in biological fluids (May 8, 1992/41 (RR-8); 001 CDC Guidelines for the Performance of CD4+ T-Cell Determinations in Persons with Human Immunodeficiency Virus Infection). Initially, purified virus was slowly thawed at 2-8° C. for 6-8 hours to minimize lysis of the virus. Next, while on ice, virus was diluted with cold PBS to a final concentration of approximately 1×10^10 copies/mL (cp/mL). […] The reaction mixtures were then incubated at 2-8° C. for 60 minutes while gently rocking. […] After the addition of glycine the reactions were gently rocked for 2 hr. at 2-8° C. To remove glycine and any excess unquenched fixative each reaction mixture was then dialyzed (10-14K m.w. cutoff) against 1 L PBS (pH 7.4, 2-8° C.) for 4 changes. Dialyzed virus was then transferred into a 15 mL tube and centrifuged for 10 min. at 3,000×g to pellet any precipitated virus. A sample of each supernatant was then tested in cell culture for the presence of infectious virus.
The modified virus produced as described in Example 2 was tested to ensure the process inactivated the virus. As an illustration, the CEM cell line, obtained from the American Type Culture Collection was used as a host cell for viral infectivity studies. Advantages of using this line are that establishment of in vitro HIV infection requires relatively few virions and that the infection is chronic rather than lytic, facilitating analysis. For these studies, infection is detected and followed using the ZeptoMetrix HIV p24 Antigen EIA (ZeptoMetrix, Buffalo N.Y.).
CEM cells are cultured in RPMI-1640 containing 10% FBS in 24 well plates Cells are plated at 10^5 cells per well in a 1 ml volume and 100 ul of various dilutions of virus, either treated or untreated, are added to individual wells. Cultures are fed twice weekly by 50% media replacement and culture supernatants are assayed for HIV p24. All cultures initially contain HIV p24. However, in cultures where virus is noninfectious HIV p24 levels decrease over time eventually reaching background levels.
Different dilutions (1:8,000, 1:80,000, and 1:800,000) of treated virus were then placed into cultures of CEM cells and p24 assays were performed on culture supernatants on days 3, 7, 10, and 14 post-inoculation. Data are expressed as pg/ml of HIV p24 protein in the culture supernatants. The standard curve for the p24 assay is linear from 7.8 pg/ml to 125 pg/ml. HIV p24 concentrations below 7.8 pg/ml are expressed as “<7.8 pg/ml” to indicate sensitivity of the assay, and values above 125 pg/ml are expressed as “>125 pg/ml” since the assay is nonlinear above 125 pg/ml.

paraformaldehyde was tested, and the “HIV p24 protein in culture supernatants” value (5.0% paraformaldehyde 60 min, treated HIV diluted 1:800,000, 10 days post-inoculation) was less than 7.8 pg/mL, the “HIV p24 protein in culture supernatants” value (5.0% paraformaldehyde 60 min, treated HIV diluted 1:800,000, 14 days post-inoculation) was less than 7.8 pg/mL and the “HIV p24 protein in culture supernatants” value (exposure time 15 minutes, treated HIV diluted 1:8,000, 3 days post-inoculation) was greater than 125 pg/mL. The “HIV p24 protein in culture supernatants” value (exposure time 15 minutes, treated HIV diluted 1:8,000, 7 days post-inoculation) was greater than 125 pg/mL, the “HIV p24 protein in culture supernatants” value (exposure time 15 minutes, treated HIV diluted 1:8,000, 10 days post-inoculation) was 43.9 pg/mL and the “HIV p24 protein in culture supernatants” value (exposure time 15 minutes, treated HIV diluted 1:8,000, 14 days post-inoculation) was less than 7.8 pg/mL. For the same substance, the “HIV p24 protein in culture supernatants” value (exposure time 15 minutes, treated HIV diluted 1:80,000, 3 days post-inoculation) was 27.9 pg/mL, the “HIV p24 protein in culture supernatants” value (exposure time 15 minutes, treated HIV diluted 1:80,000, 7 days post-inoculation) was 18.0 pg/mL and the “HIV p24 protein in culture supernatants” value (exposure time 15 minutes, treated HIV diluted 1:80,000, 10 days post-inoculation) was less than 7.8 pg/mL. For the same substance, the “HIV p24 protein in culture supernatants” value (exposure time 15 minutes, treated HIV diluted 1:80,000, 14 days post-inoculation) was less than 7.8 pg/mL, the “HIV p24 protein in culture supernatants” value (exposure time 15 minutes, treated HIV diluted 1:800,000, 3 days post-inoculation) was less than 7.8 pg/mL and the “HIV p24 protein in culture supernatants” value (exposure time 15 minutes, treated HIV diluted 1:800,000, 7 days post-inoculation) was less than 7.8 pg/mL. For the same substance, the “HIV p24 protein in culture supernatants” value (exposure time 15 minutes, treated HIV diluted 1:800,000, 10 days post-inoculation) was less than 7.8 pg/mL, the “HIV p24 protein in culture supernatants” value (exposure time 15 minutes, treated HIV diluted 1:800,000, 14 days post-inoculation) was less than 7.8 pg/mL and the “HIV p24 protein in culture supernatants” value (exposure time 30 minutes, treated HIV diluted 1:8,000, 3 days post-inoculation) was greater than 125 pg/mL. The “HIV p24 protein in culture supernatants” value (exposure time 30 minutes, treated HIV diluted 1:8,000, 7 days post-inoculation) was greater than 125 pg/mL, the “HIV p24 protein in culture supernatants” value (exposure time 30 minutes, treated HIV diluted 1:8,000, 10 days post-inoculation) was 46.2 pg/mL and the “HIV p24 protein in culture supernatants” value (exposure time 30 minutes, treated HIV diluted 1:8,000, 14 days post-inoculation) was less than 7.8 pg/mL. The “HIV p24 protein in culture supernatants” value (exposure time 30 minutes, treated HIV diluted 1:80,000, 3 days post-inoculation) was 22.6 pg/mL, the “HIV p24 protein in culture supernatants” value (exposure time 30 minutes, treated HIV diluted 1:80,000, 7 days post-inoculation) was 10.3 pg/mL and the “HIV p24 protein in culture supernatants” value (exposure time 30 minutes, treated HIV diluted 1:80,000, 10 days post-inoculation) was less than 7.8 pg/mL. The “HIV p24 protein in culture supernatants” value (exposure time 30 minutes, treated HIV diluted 1:80,000, 14 days post-inoculation) was less than 7.8 pg/mL, the “HIV p24 protein in culture supernatants” value (exposure time 30 minutes, treated HIV diluted 1:800,000, 3 days post-inoculation) was less than 7.8 pg/mL and the “HIV p24 protein in culture supernatants” value (exposure time 30 minutes, treated HIV diluted 1:800,000, 7 days post-inoculation) was less than 7.8 pg/mL. The “HIV p24 protein in culture supernatants” value (exposure time 30 minutes, treated HIV diluted 1:800,000, 10 days post-inoculation) was less than 7.8 pg/mL, the “HIV p24 protein in culture supernatants” value (exposure time 30 minutes, treated HIV diluted 1:800,000, 14 days post-inoculation) was less than 7.8 pg/mL and the “HIV p24 protein in culture supernatants” value (exposure time 60 minutes, treated HIV diluted 1:8,000, 3 days post-inoculation) was greater than 125 pg/mL. The “HIV p24 protein in culture supernatants” value (exposure time 60 minutes, treated HIV diluted 1:8,000, 7 days post-inoculation) was greater than 125 pg/mL, the “HIV p24 protein in culture supernatants” value (exposure time 60 minutes, treated HIV diluted 1:8,000, 10 days post-inoculation) was 87.4 pg/mL and the “HIV p24 protein in culture supernatants” value (exposure time 60 minutes, treated HIV diluted 1:8,000, 14 days post-inoculation) was less than 7.8 pg/mL. For the same substance, the “HIV p24 protein in culture supernatants” value (exposure time 60 minutes, treated HIV diluted 1:80,000, 3 days post-inoculation) was 59.8 pg/mL, the “HIV p24 protein in culture supernatants” value (exposure time 60 minutes, treated HIV diluted 1:80,000, 7 days post-inoculation) was 36.0 pg/mL and the “HIV p24 protein in culture supernatants” value (exposure time 60 minutes, treated HIV diluted 1:80,000, 10 days post-inoculation) was less than 7.8 pg/mL. For the same substance, the “HIV p24 protein in culture supernatants” value (exposure time 60 minutes, treated HIV diluted 1:80,000, 14 days post-inoculation) was less than 7.8 pg/mL, the “HIV p24 protein in culture supernatants” value (exposure time 60 minutes, treated HIV diluted 1:800,000, 3 days post-inoculation) was less than 7.8 pg/mL and the “HIV p24 protein in culture supernatants” value (exposure time 60 minutes, treated HIV diluted 1:800,000, 7 days post-inoculation) was less than 7.8 pg/mL. For the same substance, the “HIV p24 protein in culture supernatants” value (exposure time 60 minutes, treated HIV diluted 1:800,000, 10 days post-inoculation) was less than 7.8 pg/mL, the “HIV p24 protein in culture supernatants” value (exposure time 60 minutes, treated HIV diluted 1:800,000, 14 days post-inoculation) was less than 7.8 pg/mL and the “HIV p24 protein in culture supernatants” value (exposure time Overnight, treated HIV diluted 1:8,000, 3 days post-inoculation) was greater than 125 pg/mL. For the same substance, the “HIV p24 protein in culture supernatants” value (exposure time Overnight, treated HIV diluted 1:8,000, 7 days post-inoculation) was greater than 125 pg/mL, the “HIV p24 protein in culture supernatants” value (exposure time Overnight, treated HIV diluted 1:8,000, 10 days post-inoculation) was 27.6 pg/mL and the “HIV p24 protein in culture supernatants” value (exposure time Overnight, treated HIV diluted 1:8,000, 14 days post-inoculation) was less than 7.8 pg/mL. For the same substance, the “HIV p24 protein in culture supernatants” value (exposure time Overnight, treated HIV diluted 1:80,000, 3 days post-inoculation) was 16.3 pg/mL, the “HIV p24 protein in culture supernatants” value (exposure time Overnight, treated HIV diluted 1:80,000, 7 days post-inoculation) was 17.5 pg/mL and the “HIV p24 protein in culture supernatants” value (exposure time Overnight, treated HIV diluted 1:80,000, 10 days post-inoculation) was less than 7.8 pg/mL. For the same substance, the “HIV p24 protein in culture supernatants” value (exposure time Overnight, treated HIV diluted 1:80,000, 14 days post-inoculation) was less than 7.8 pg/mL, the “HIV p24 protein in culture supernatants” value (exposure time Overnight, treated HIV diluted 1:800,000, 3 days post-inoculation) was less than 7.8 pg/mL and the “HIV p24 protein in culture supernatants” value (exposure time Overnight, treated HIV diluted 1:800,000, 7 days post-inoculation) was less than 7.8 pg/mL. For the same substance, the “HIV p24 protein in culture supernatants” value (exposure time Overnight, treated HIV diluted 1:800,000, 10 days post-inoculation) was less than 7.8 pg/mL, the “HIV p24 protein in culture supernatants” value (exposure time Overnight, treated HIV diluted 1:800,000, 14 days post-inoculation) was less than 7.8 pg/mL and the “amounts of p24 in the culture supernatants” value (treatment of virus with paraformaldehyde, by day 14) was “non-detectable”.
